This note sets out measurements from patent publication US20100028892A1, “YEAST BASED EXPRESSION OF PROTEASES AND METHODS OF USE” (Burnham Institute for Medical Research, priority 2008, published 2010).

The test system of one assay is Caspases. The assay is described as follows: validation of 384 well yeast-based Caspase-dependent lacZ reporter gene assays with pharmacological inhibitors. The assay is classed as cell-based, human. The text has this:
When converting the yeast-based protease reporter system to HTS assay, conditions from agar plates to liquid medium in microtiter wells must be revised. This revision comprises, utilizing the measured β-galactosidase produced by yeast carrying the Caspase-cleavable reporter proteins, and assaying the colorimetric product (OD620nm) derived from X-gal substrate in 384 well plates, as a measure of the lacZ reporter gene activity. We compared β-galactosidase activity produced in the presence or absence of the broad-spectrum caspase inhibitory compound, zVAD-fmk ([…]-Valinyl-Alaninyl-Aspartyl-fluoromethylketone). Among the variables that were initially interrogated were initial seeding cell density, time of culture, concentration of X-gal substrate, and supporting carbohydrate (raffinose vs mannose). Note that it was determined that it is not advisible to employ glucose in yeast media because it represses the GAL1 promoter used in some plasmids. An example of data obtained using the plural-component system of Fas/FADD/Caspase-8 is presented. All variables tested altered the signal:noise ratio of the assay. […] For the two-component system of ASC/Caspase-1 and for the plural-component system of NALP1ΔLRR/ASC/Caspase-1, the same conditions were optimal, among those tested (not shown). For the Fas/Fadd/Caspase 8, the caspase and adaptor protein (Fadd) were expressed at relatively small amounts (a weak promoter and low copy number plasmid are used) and the upstream activator (Fas) was expressed in a large amount.
The 384 well assay format was further validated, using zVAD-fmk, a peptidyl inhibitor with broad-spectrum activity against animal Caspases. […]
The validation results of a yeast-based Caspase assay using a pharmacological inhibitor of Caspases are shown in FIG. 11 consisting of FIGS. 11A-C (A) Caspase-1, single-component assay. […] For (A-C), relative absorbance at 620 nm was measured (mean ±std dev; n=3-5 independent experiments). […]
(§1) Assays were performed in a total volume of […] in triplicate. […] Absorbance at 620 nm was measured 2-3 days after culture at 30° C.
For orientation: A reporter such as luciferase makes a cellular process visible.

Assay [1] deals with T1, Caspase10 activated with FADD (Homo sapiens, UniProt Q92851).
T1 construct: a small amount of each full-length Caspase construct was expressed with a large amount of adaptor protein FADD; FLAG (C); expressed in transfected cells; host or cells: Saccharomyces cerevisiae EGY48
T1 sequence (Q92851 1-479 isoform Q92851-2): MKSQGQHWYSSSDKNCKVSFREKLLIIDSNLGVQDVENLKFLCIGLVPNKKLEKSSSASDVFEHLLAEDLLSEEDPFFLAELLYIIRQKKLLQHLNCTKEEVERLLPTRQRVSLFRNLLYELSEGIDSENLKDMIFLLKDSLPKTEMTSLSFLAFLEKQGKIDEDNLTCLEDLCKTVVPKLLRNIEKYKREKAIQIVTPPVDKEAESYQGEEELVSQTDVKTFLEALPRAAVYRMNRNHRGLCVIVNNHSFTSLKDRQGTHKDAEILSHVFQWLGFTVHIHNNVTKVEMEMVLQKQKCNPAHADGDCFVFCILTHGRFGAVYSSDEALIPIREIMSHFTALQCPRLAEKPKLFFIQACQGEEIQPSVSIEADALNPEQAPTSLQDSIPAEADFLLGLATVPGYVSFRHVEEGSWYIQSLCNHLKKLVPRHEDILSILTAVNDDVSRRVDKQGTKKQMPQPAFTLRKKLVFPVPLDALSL
The assay is described as follows: yeast 384 well β-galactosidase reporter assay, Caspase10 activated with FADD. It counts as cell-based. The conditions noted are these: Caspase10 activated with FADD in yeast, 384 well β-galactosidase activity assay.
From the text: (§2) When converting the yeast-based protease reporter system to HTS assay, conditions from agar plates to liquid medium in microtiter wells must be revised. This revision comprises, utilizing the measured β-galactosidase produced by yeast carrying the Caspase-cleavable reporter proteins, and assaying the colorimetric product (OD620nm) derived from X-gal substrate in 384 well plates, as a measure of the lacZ reporter gene activity. We compared β-galactosidase activity produced in the presence or absence of the broad-spectrum caspase inhibitory compound, zVAD-fmk ([…]-Valinyl-Alaninyl-Aspartyl-fluoromethylketone). […] Note that it was determined that it is not advisible to employ glucose in yeast media because it represses the GAL1 promoter used in some plasmids. […]
(§3) Yeast expressing various Caspases alone (at high levels) or in combination with upstream activators (at low levels) and cleavable substrates containing appropriate tetrapeptides reorganized by these proteases were used in 384 well β-galactosidase activity assays to assess inhibition by zVAD-fmk. The compound was titrated into assays at various concentrations and percentage inhibition was determined.
as §1

Another assay deals with T2, Caspase7 (Homo sapiens, UniProt P55210).
T2 construct: each full-length Caspase construct was expressed (for Caspases-1, 2, 3, 4, 5, 6, 7, and 9) at high levels; expressed in transfected cells; host or cells: Saccharomyces cerevisiae (EGY48)
T2 sequence (P55210 1-303): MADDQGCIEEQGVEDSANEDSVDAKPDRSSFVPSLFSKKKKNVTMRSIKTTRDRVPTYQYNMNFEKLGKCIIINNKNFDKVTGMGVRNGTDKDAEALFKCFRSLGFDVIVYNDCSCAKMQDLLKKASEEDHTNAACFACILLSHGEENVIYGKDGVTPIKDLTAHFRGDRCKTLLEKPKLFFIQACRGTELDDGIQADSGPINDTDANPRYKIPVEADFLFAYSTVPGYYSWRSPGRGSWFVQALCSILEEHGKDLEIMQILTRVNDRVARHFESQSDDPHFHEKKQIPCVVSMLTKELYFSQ
The assay is described as follows: yeast 384 well β-galactosidase reporter assay, Caspase7. It counts as cell-based. The conditions noted are these: Caspase7 in yeast, 384 well β-galactosidase activity assay.
From the text: as §2, §3, §1

As for “benzoyl-Valinyl-Alaninyl-Aspartyl-fluoromethylketone [zVAD-fmk]”, in the assay with Caspases (384 well yeast-based Caspase-dependent reporter gene assay), the “effect on β-galactosidase activity / activation of the lacZ reporter gene” value is listed as “inhibited β-galactosidase activity in a dose-dependent fashion”. The IC50 at Caspases (range over the yeast-based Caspase assays, 384 well format, read-out: concentration required for achieving 50% inhibition of β-galactosidase activity) was 1 to 10 µM; in assay [1], 9.52 µM; on Caspase7 it was 4.11 µM.
